Measured values: US20230203026A1, “PESTICIDAL COMPOSITIONS AND METHODS” (CORTEVA AGRISCIENCE LLC, priority 2017, published 2023)

How the values were obtained:
[1] = test system: beet armyworm (Spodoptera exigua, LAPHEG) ("BAW"); assay: Insecticidal test for beet armyworm, 128-well diet tray assay; type: in vivo; conditions: 168 h, 50 μg/cm^2 of test compound on artificial diet, second instar BAW larvae, 25° C., five to seven days, average of eight wells, read-out: BAW % Control (or Mortality) rating
Protocol: Insecticidal test for beet armyworm (Spodoptera exigua, LAPHEG) (“BAW”)
(§1) Bioassays on beet armyworm (BAW; Spodoptera exigua: Lepidoptera) are conducted using a 128-well diet tray assay. One to five second instar BAW larvae are placed in each well (3 mL) of the diet tray that had been previously filled with 1 mL of artificial diet to which 50 μg/cm^2 of the test compound (dissolved in 50 μL of 90:10 acetone-water mixture) had been applied (to each of eight wells) and then allowed to dry. Trays are covered with a clear self-adhesive cover, vented to allow gas exchange, and held at 25° C., 14:10 light-dark for five to seven days. Percent mortality is recorded for the larvae in each well; activity in the eight wells is then averaged.

[2] = test system: Cabbage Looper (Trichloplusia ni, TRIPNI) ("CL"); assay: Insecticidal test for cabbage looper, 128-well diet tray assay; type: in vivo; conditions: Trichoplusia ni, 168 h; 50 μg/cm^2 of test compound on artificial diet; second instar CL larvae; 25° C.; five to seven days; average of eight wells; read-out: CL % Control (or Mortality) rating
Protocol: Insecticidal Test for Cabbage Looper (Trichloplusia ni, TRIPNI) (“CL”)
as §1, with “cabbage looper (CL; Trichloplusia ni:” for “beet armyworm (BAW; Spodoptera exigua:”, “CL” for “BAW”

Cc1ccc(OCC(F)(F)F)c(N2C(=O)CS/C2=N\C(=O)NOCc2ccc(-c3ncn(-c4ccc(OC(F)(F)F)cc4)n3)cc2)c1 [A30, (Z)-1-(3-(5-Methyl-2-(2,2,2-trifluoroethoxy)phenyl)-4-oxothiazolidin-2-ylidene)-3-((4-(1-(4-(trifluoromethoxy)phenyl)-1H-1,2,4-triazol-3-yl)benzyl)oxy)urea]
mortality at 50 µg/cm2 [1]: 50 to 100% | mortality at 50 µg/cm2 [2]: 50 to 100%

Cc1ccc(OCC(F)(F)F)c(N2C(=O)CS/C2=N\C(=O)NNC(C)c2ccc(-c3ncn(-c4ccc(OC(F)(F)F)cc4)n3)cc2)c1 (stereo not shown) [A6, (Z)—N-(3-(5-Methyl-2-(2,2,2-trifluoroethoxy)phenyl)-4-oxothiazolidin-2-ylidene)-2-(1-(4-(1-(4-(trifluoromethoxy)phenyl)-1H-1,2,4-triazol-3-yl)phenyl)ethyl)hydrazine-1-carboxamide]
mortality at 50 µg/cm2 [1]: 50 to 100% | mortality at 50 µg/cm2 [2]: 50 to 100%

COCc1ccc(C)cc1N1C(=O)CS/C1=N\C(=O)NOCc1ccc(-c2ncn(-c3ccc(OC(F)(F)F)cc3)n2)cc1 [A27, (Z)-1-(3-(2-(Methoxymethyl)-5-methylphenyl)-4-oxothiazolidin-2-ylidene)-3-((4-(1-(4-(trifluoromethoxy)phenyl)-1H-1,2,4-triazol-3-yl)benzyl)oxy)urea]
mortality at 50 µg/cm2 [1]: 50 to 100% | mortality at 50 µg/cm2 [2]: 50 to 100%

Cc1ccc(C(C)C)c(N2C(=O)CS/C2=N\C(=O)ON(Cc2ccc(-c3ncn(-c4ccc(OC(F)(F)F)cc4)n3)cc2)C(=O)OC(C)(C)C)c1 [A35, tert-Butyl (Z)-(((3-(2-isopropyl-5-methylphenyl)-4-oxothiazolidin-2-ylidene)carbamoyl)oxy)(4-(1-(4-(trifluoromethoxy)phenyl)-1H-1,2,4-triazol-3-yl)benzyl)carbamate]
mortality at 50 µg/cm2 [1]: 0% | mortality at 50 µg/cm2 [2]: 0%

Cc1ccc(C(C)C)c(N2C(=O)CS/C2=N\C(=O)NOCc2ccc(-c3ncn(-c4ccc(OC(F)(F)F)cc4)n3)cc2)c1 [A28, (Z)-1-(3-(2-Isopropyl-5-methylphenyl)-4-oxothiazolidin-2-ylidene)-3-((4-(1-(4-(trifluoromethoxy)phenyl)-1H-1,2,4-triazol-3-yl)benzyl)oxy)urea]
mortality at 50 µg/cm2 [1]: 50 to 100% | mortality at 50 µg/cm2 [2]: 50 to 100%

CC(C)c1ccc(Cl)cc1N1C(=O)CS/C1=N\C(=O)NOC(C)c1ccc(-c2ncn(-c3ccc(OC(F)(F)F)cc3)n2)cc1 (stereo not shown) [A21, (Z)-1-(3-(5-Chloro-2-isopropylphenyl)-4-oxothiazolidin-2-ylidene)-3-(1-(4-(1-(4-(trifluoromethoxy)phenyl)-1H-1,2,4-triazol-3-yl)phenyl)ethoxy)urea]
mortality at 50 µg/cm2 [1]: 50 to 100% | mortality at 50 µg/cm2 [2]: 50 to 100%

COc1ccc(CC(F)(F)F)c(N2C(=O)CS/C2=N\C(=O)NOCc2ccc(-c3ncn(-c4ccc(OC(F)(F)F)cc4)n3)cc2)c1 [A25, (Z)-1-(3-(5-Methoxy-2-(2,2,2-trifluoroethyl)phenyl)-4-oxothiazolidin-2-ylidene)-3-((4-(1-(4-(trifluoromethoxy)phenyl)-1H-1,2,4-triazol-3-yl)benzyl)oxy)urea]
mortality at 50 µg/cm2 [1]: 50 to 100% | mortality at 50 µg/cm2 [2]: 50 to 100%

Cc1ccc(C(F)(F)F)c(N2C(=O)CS/C2=N\C(=O)NOC(C)c2ccc(-c3ncn(-c4ccc(OC(F)(F)F)cc4)n3)cc2)c1 (stereo not shown) [A13, (Z)-1-(3-(5-Methyl-2-(trifluoromethyl)phenyl)-4-oxothiazolidin-2-ylidene)-3-(1-(4-(1-(4-(trifluoromethoxy)phenyl)-1H-1,2,4-triazol-3-yl)phenyl)ethoxy)urea]
mortality at 50 µg/cm2 [1]: 50 to 100% | mortality at 50 µg/cm2 [2]: 50 to 100%

Cc1ccc(C(C)C)c(N2C(=O)CS/C2=N\C(=O)NOC(C)c2ccc(-c3ncn(-c4ccc(OC(F)(F)F)cc4)n3)cc2)c1 (stereo not shown) [A17, (Z)-1-(3-(2-Isopropyl-5-methylphenyl)-4-oxothiazolidin-2-ylidene)-3-(1-(4-(1-(4-(trifluoromethoxy)phenyl)-1H-1,2,4-triazol-3-yl)phenyl)ethoxy)urea]
mortality at 50 µg/cm2 [1]: 50 to 100% | mortality at 50 µg/cm2 [2]: 50 to 100%

Cc1ccc(C(C)C)c(N2C(=O)CS/C2=N\C(=O)NOCc2ccc(-c3ncn(-c4ccc(OC(F)(F)C(F)(F)F)cc4)n3)cc2)c1 [A33, (Z)-1-(3-(2-Isopropyl-5-methylphenyl)-4-oxothiazolidin-2-ylidene)-3-((4-(1-(4-(perfluoroethoxy)phenyl)-1H-1,2,4-triazol-3-yl)benzyl)oxy)urea]
mortality at 50 µg/cm2 [1]: 50 to 100% | mortality at 50 µg/cm2 [2]: 50 to 100%

Cc1ccc(C(C)C)c(N2C(=O)CS/C2=N\C(=O)ON(C)Cc2ccc(-c3ncn(-c4ccc(OC(F)(F)F)cc4)n3)cc2)c1 [A39, (Z)-3-(2-isopropyl-5-methylphenyl)-2-((((methyl(4-(1-(4-(trifluoromethoxy)phenyl)-1H-1,2,4-triazol-3-yl)benzyl)amino)oxy)carbonyl)imino)thiazolidin-4-one]
mortality at 50 µg/cm2 [1]: 50 to 100% | mortality at 50 µg/cm2 [2]: 50 to 100%

CC(C)c1ccccc1N1C(=O)CS/C1=N\C(=O)NOCc1ccc(-c2ncn(-c3ccc(OC(F)(F)F)cc3)n2)cc1 [A29, (Z)-1-(3-(2-Isopropylphenyl)-4-oxothiazolidin-2-ylidene)-3-((4-(1-(4-(trifluoromethoxy)phenyl)-1H-1,2,4-triazol-3-yl)benzyl)oxy)urea]
mortality at 50 µg/cm2 [1]: 50 to 100% | mortality at 50 µg/cm2 [2]: 50 to 100%

Cc1ccc(C(F)(F)F)c(N2C(=O)CS/C2=N\C(=O)NN(C)C(C)c2ccc(-c3ncn(-c4ccc(OC(F)(F)F)cc4)n3)cc2)c1 (stereo not shown) [A37, (Z)-2-Methyl-N-(3-(5-methyl-2-(trifluoromethyl)phenyl)-4-oxothiazolidin-2-ylidene)-2-(1-(4-(1-(4-(trifluoromethoxy)phenyl)-1H-1,2,4-triazol-3-yl)phenyl)ethyl)hydrazine-1-carboxamide]
mortality at 50 µg/cm2 [1]: 50 to 100% | mortality at 50 µg/cm2 [2]: 50 to 100%

Cc1ccc(OCC(F)(F)F)c(N2C(=O)CS/C2=N\C(=O)NOC(C)c2ccc(-c3ncn(-c4ccc(OC(F)(F)F)cc4)n3)cc2)c1 (stereo not shown) [A19, (Z)-1-(3-(5-Methyl-2-(2,2,2-trifluoroethoxy)phenyl)-4-oxothiazolidin-2-ylidene)-3-(1-(4-(1-(4-(trifluoromethoxy)phenyl)-1H-1,2,4-triazol-3-yl)phenyl)ethoxy)urea]
mortality at 50 µg/cm2 [1]: 50 to 100% | mortality at 50 µg/cm2 [2]: 50 to 100%

Cc1ccc(C(C)C)c(N2C(=O)CS/C2=N\C(=O)NOC(C)c2ccc(-c3ncn(-c4ccc(OC(F)(F)C(F)(F)F)cc4)n3)cc2)c1 (stereo not shown) [A34, (Z)-1-(3-(2-Isopropyl-5-methylphenyl)-4-oxothiazolidin-2-ylidene)-3-(1-(4-(1-(4-(perfluoroethoxy)phenyl)-1H-1,2,4-triazol-3-yl)phenyl)ethoxy)urea]
mortality at 50 µg/cm2 [1]: 50 to 100% | mortality at 50 µg/cm2 [2]: 50 to 100%

Cc1ccc(Cl)c(N2C(=O)CS/C2=N\C(=O)NOCc2ccc(-c3ncn(-c4ccc(OC(F)(F)F)cc4)n3)cc2)c1 [A22, (Z)-1-(3-(2-Chloro-5-methylphenyl)-4-oxothiazolidin-2-ylidene)-3-((4-(1-(4-(trifluoromethoxy)phenyl)-1H-1,2,4-triazol-3-yl)benzyl)oxy)urea]
mortality at 50 µg/cm2 [1]: 50 to 100% | mortality at 50 µg/cm2 [2]: 50 to 100%

O=C(/N=C1\SCC(=O)N1c1cc(Cl)ccc1OCC(F)(F)F)NOCc1ccc(-c2ncn(-c3ccc(OC(F)(F)F)cc3)n2)cc1 [A31, (Z)-1-(3-(5-Chloro-2-(2,2,2-trifluoroethoxy)phenyl)-4-oxothiazolidin-2-ylidene)-3-((4-(1-(4-(trifluoromethoxy)phenyl)-1H-1,2,4-triazol-3-yl)benzyl)oxy)urea]
mortality at 50 µg/cm2 [1]: 50 to 100% | mortality at 50 µg/cm2 [2]: 50 to 100%
